Each structure is given as a SMILES string.

This assay concerns the target ATX (human His-tagged) (Homo sapiens (Human), UniProt Q13822). Description: Human ATX enzyme inhibition assay (fluorescence quenching, MR121 substrate). The format is biochemical. Particulars: 30 nM ATX, 1 μM MR121 substrate, 30° C., pH 8.0. The method, boiled down: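 Fluorescence-quenching assay using MR121 substrate at 1 μM final, incubated 15 min at 30 °C. Buffer was 50 mM Tris-HCl pH 8.0 with 140 mM NaCl, 5 mM KCl, 1 mM CaCl2, 1 mM MgCl2 and 0.01% Triton X-100.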
For `CN(Cc1cnn[nH]1)C(=O)N1C[C@H]2CCN(C(=O)CCc3ccc(OC(F)(F)F)c(F)c3)CC[C@H]2C1` [Example 17.02, (3aR,8aS)-N-((1H-1,2,3-triazol-5-yl)methyl)-6-(3-(3-fluoro-4-(trifluoromethoxy)phenyl)-propanoyl)-N-methyloctahydropyrrolo[3,4-d]azepine-2(1H)-carboxamide], 101 nM corresponded to half-maximal inhibition (IC50).
As to `O=C(CCc1ccc(OC(F)F)cc1)N1C[C@@H]2CN(C(=O)c3ccc4[nH]nnc4c3)C[C@H]2C1` [Example 17.03, 1-[(3aR,6aR)-5-(1H-benzotriazole-5-carbonyl)-hexahydro-pyrrolo[3,4-c]pyrrol-2-yl]-3-(4-difluoromethoxy-phenyl)-propan-1-one], the midpoint of inhibition, the IC50, lay at 16 nM.
With `O=C(CCc1ccc(OC(F)(F)F)cc1F)N1C[C@@H]2CN(C(=O)c3ccc4[nH]nnc4c3)C[C@H]2C1` [Example 17.04, 1-[(3aR,6aR)-5-(1H-benzotriazole-5-carbonyl)-hexahydro-pyrrolo[3,4-c]pyrrol-2-yl]-3-(2-fluoro-4-trifluoromethoxy-phenyl)-propan-1-one], half-maximal inhibition (IC50) was put at 8 nM.
For `O=C(CCc1ccc(F)cc1C(F)(F)F)N1CC[C@@H]2CN(C(=O)c3ccc4[nH]nnc4c3)C[C@@H]2CC1` [Example 17.05, 1-((3aR,8aS)-2-(1H-benzo[d][1,2,3]triazole-5-carbonyl)octahydropyrrolo[3,4-d]azepin-6(7H)-yl)-3-(4-fluoro-2-(trifluoromethyl)phenyl)propan-1-one] the value was 6 nM; for `Cc1cc(OC(F)(F)F)ccc1CCC(=O)N1CC[C@@H]2CN(C(=O)c3ccc4[nH]nnc4c3)C[C@@H]2CC1` [Example 17.06, 1-((3aR,8aS)-2-(1H-benzo[d][1,2,3]triazole-5-carbonyl)octahydropyrrolo[3,4-d]azepin-6(7H)-yl)-3-(2-methyl-4-(trifluoromethoxy)phenyl)-propan-1-one], 10 nM.
For the compound `COc1ccc(CCC(=O)N2CC[C@@H]3CN(C(=O)c4ccc5[nH]nnc5c4)C[C@@H]3CC2)cc1F` [Example 17.07, 1-((3aR,8aS)-2-(1H-benzo[d][1,2,3]triazole-5-carbonyl)octahydropyrrolo[3,4-d]azepin-6(7H)-yl)-3-(3-fluoro-4-methoxyphenyl)propan-1-one], the IC50 (commonly the point on the concentration scale where inhibition reaches its midpoint) was 43 nM.
As to `CC(C)c1ccccc1CCC(=O)N1CC[C@@H]2CN(C(=O)c3ccc4[nH]nnc4c3)C[C@@H]2CC1` [Example 17.08, 1-[(3aS,8aR)-2-(1H-benzotriazole-5-carbonyl)-octahydro-pyrrolo[3,4-d]azepin-6-yl]-3-(2-isopropyl-phenyl)-propan-1-one], half-maximal inhibition (IC50) was put at 16 nM.
For `O=C(CCc1ccc(C(F)(F)F)cn1)N1C[C@@H]2CN(C(=O)c3ccc4[nH]nnc4c3)C[C@H]2C1` [Example 17.09, 1-[(3aR,6aR)-5-(1H-benzotriazole-5-carbonyl)-hexahydro-pyrrolo[3,4-c]pyrrol-2-yl]-3-(5-trifluoromethyl-pyridin-2-yl)-propan-1-one] the value was 58 nM; for `O=C(CCc1ccc(-c2ccccc2)cn1)N1C[C@@H]2CN(C(=O)c3ccc4[nH]nnc4c3)C[C@H]2C1` [Example 17.10, 1-[(3aR,6aR)-5-(1H-benzotriazole-5-carbonyl)-hexahydro-pyrrolo[3,4-c]pyrrol-2-yl]-3-(5-phenyl-pyridin-2-yl)-propan-1-one], 21 nM; for `O=C(CCc1ccc(-c2ccncc2)cc1)N1C[C@@H]2CN(C(=O)c3ccc4[nH]nnc4c3)C[C@H]2C1` [Example 17.11, 1-[(3aR,6aR)-5-(1H-benzotriazole-5-carbonyl)-hexahydro-pyrrolo[3,4-c]pyrrol-2-yl]-3-(4-pyridin-4-yl-phenyl)-propan-1-one], 28 nM.
Next, `O=C(CCc1ccc(-c2cccnc2)cc1)N1C[C@@H]2CN(C(=O)c3ccc4[nH]nnc4c3)C[C@H]2C1` [Example 17.12, 1-[(3aR,6aR)-5-(1H-benzotriazole-5-carbonyl)-hexahydro-pyrrolo[3,4-c]pyrrol-2-yl]-3-(4-pyridin-3-yl-phenyl)-propan-1-one]: 32 nM.

These data come from US10669268B2, “Bicyclic derivatives” (Hoffmann-La Roche Inc., priority 2012, dated 2020).
